# Where a chain is given by its changes, count along the chain named.
# Biological target: T1, androgen receptor (AR) (Homo sapiens, UniProt P10275, T878A)
# T1 construct: endogenous in cells; host or cells: LNCAP
# T1 sequence (P10275 1-920 T878A): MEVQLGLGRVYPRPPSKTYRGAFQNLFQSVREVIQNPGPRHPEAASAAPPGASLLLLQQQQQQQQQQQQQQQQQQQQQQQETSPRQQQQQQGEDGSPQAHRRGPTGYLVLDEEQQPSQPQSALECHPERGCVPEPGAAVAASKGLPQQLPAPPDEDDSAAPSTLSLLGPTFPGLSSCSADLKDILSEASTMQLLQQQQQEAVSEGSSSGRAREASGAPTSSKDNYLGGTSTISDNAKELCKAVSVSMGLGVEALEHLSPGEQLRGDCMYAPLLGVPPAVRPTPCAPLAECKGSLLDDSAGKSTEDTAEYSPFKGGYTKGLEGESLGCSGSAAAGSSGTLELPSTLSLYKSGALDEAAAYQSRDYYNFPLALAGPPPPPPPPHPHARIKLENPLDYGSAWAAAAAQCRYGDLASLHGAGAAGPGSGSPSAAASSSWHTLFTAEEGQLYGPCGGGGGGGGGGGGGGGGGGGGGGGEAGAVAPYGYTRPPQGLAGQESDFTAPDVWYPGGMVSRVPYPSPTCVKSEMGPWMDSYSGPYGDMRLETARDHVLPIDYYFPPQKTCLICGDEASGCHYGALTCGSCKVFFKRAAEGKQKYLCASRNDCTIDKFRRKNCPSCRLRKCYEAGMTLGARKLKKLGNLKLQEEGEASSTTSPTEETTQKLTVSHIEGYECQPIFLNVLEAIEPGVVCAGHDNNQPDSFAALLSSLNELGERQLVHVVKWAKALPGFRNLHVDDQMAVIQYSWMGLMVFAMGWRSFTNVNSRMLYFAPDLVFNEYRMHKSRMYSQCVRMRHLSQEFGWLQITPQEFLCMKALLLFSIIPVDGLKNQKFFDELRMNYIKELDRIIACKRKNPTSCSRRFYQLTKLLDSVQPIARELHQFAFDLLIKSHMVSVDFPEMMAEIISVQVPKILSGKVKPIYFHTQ
# Assay: AR degradation in LNCAP cells (Western blot)
# Assay type: cell-based
# Details: 24 hours after administration
# Protocol: (§1) LNCAP, VCAP and 22Rv1 cells were plated in 24-well plates at 1.5×10E5 cells/well in the RPMI growth medium containing 10% FBS and 1% Penicillin Streptomycin, and then incubated at 37° C. overnight. The following day, the test compound was administered to the cells by using 1000× compound stock solution prepared in DMSO at various concentrations. After administration of the compound, the cells were then incubated at 37° C. for 24 hours. Upon completion, the cells were washed with PBS and protein was collected in Laemmli sample buffer (1×; VWR International). Proteins in cell lysate were separated by SDS-PAGE and transferred to Odyssey nitrocellulose membranes (Licor) with iblot® dry blotting transfer system (ThermoFisher). Nonspecific binding was blocked by incubating membranes with Intercept Blocking Buffer (Licor) for 1 hour at room temperature with gentle shaking. The membranes were then incubated overnight at 4° C. with Primary antibodies rabbit anti-AR (1:1,000, Cell Signaling, 5153) and mouse anti-GAPDH (1:5,000, Santa Cruz Biotechnology, sc-47724) diluted in Intercept Blocking Buffer containing 0.1% Tween 20. After washing 3 times with TBS-T, the membranes were incubated with IRDye® […] goat anti-mouse IgG (1:20,000, Licor) or IRDye® […] goat anti-rabbit IgG (1:20,000, Licor) for 1 hour. After TBS-T washes, membranes were rinsed in TBS and scanned on Odyssey® CLx Imaging System (Licor). The bands were quantified using Image Studio™ Software (Licor).
# (§2) Tables 5 and 6 summarize the androgen receptor (AR) degradative activity of exemplary compounds in LNCAP, VCAP and 22Rv1 cell lines 24 hours after administration. DC50: compound concentration needed for 50% target protein degradation.
row,DC50 [µM],SMILES
1,> 0.1,"CC(C)N(CC1CCN(c2ccc(NC(=O)N3C[C@H](C)N(c4ccc(C#N)c5ncccc45)C[C@H]3C)cn2)CC1)C1CC(Oc2ccc3c(c2)C(=O)N(C2CCC(=O)NC2=O)C3=O)C1 (stereo partly drawn) [Compound 2-13, (2R,5S)-4-(8-cyanoquinolin-5-yl)-N-(6-(4-((((1r,3r)-3-((2-(2,6-dioxopiperidin-3-yl)-1,3-dioxoisoindolin-5-yl)oxy)cyclobutyl)(isopropyl)amino)methyl)piperidin-1-yl)pyridin-3-yl)-2,5-dimethylpiperazine-1-carboxamide]"
2,≤ 0.01,"CC(C)N(CC1CCN(c2ncc(NC(=O)N3C[C@H](C)N(c4ccc(C#N)c5ncccc45)C[C@H]3C)cn2)CC1)C1CC(Oc2ccc3c(c2)C(=O)N(C2CCC(=O)NC2=O)C3=O)C1 (stereo partly drawn) [Compound 2-14, (2R,5S)-4-(8-cyanoquinolin-5-yl)-N-(2-(4-((((1r,3r)-3-((2-(2,6-dioxopiperidin-3-yl)-1,3-dioxoisoindolin-5-yl)oxy)cyclobutyl)(isopropyl)amino)methyl)piperidin-1-yl)pyrimidin-5-yl)-2,5-dimethylpiperazine-1-carboxamide]"
3,> 0.1,"C[C@H]1CN(C(=O)Nc2ccc(N3CCC(CN4CCN(c5ccc6c(c5)C(=O)N(C5CCC(=O)NC5=O)C6=O)CC4)CC3)nc2)CCN1c1ccc(C#N)c2ncccc12 (stereo partly drawn) [Compound 2-15, (3S)-4-(8-cyanoquinolin-5-yl)-N-(6-(4-((4-(2-(2,6-dioxopiperidin-3-yl)-1,3-dioxoisoindolin-5-yl)piperazin-1-yl)methyl)piperidin-1-yl)pyridin-3-yl)-3-methylpiperazine-1-carboxamide]"
4,> 0.1,"C[C@H]1CN(C(=O)Nc2cnc(N3CCC(CN4CCN(c5ccc6c(c5)C(=O)N(C5CCC(=O)NC5=O)C6=O)CC4)CC3)nc2)CCN1c1ccc(C#N)c2ncccc12 (stereo partly drawn) [Compound 2-16, (3S)-4-(8-cyanoquinolin-5-yl)-N-(2-(4-((4-(2-(2,6-dioxopiperidin-3-yl)-1,3-dioxoisoindolin-5-yl)piperazin-1-yl)methyl)piperidin-1-yl)pyrimidin-5-yl)-3-methylpiperazine-1-carboxamide]"
5,> 0.1,"C[C@@H]1CN(c2ccc(C#N)c3ncccc23)[C@@H](C)CN1C(=O)Nc1cc(F)c(N2CCC(CN3CCN(c4ccc5c(c4)C(=O)N(C4CCC(=O)NC4=O)C5=O)CC3)CC2)cc1F (stereo partly drawn) [Compound 2-17, (2R,5S)-4-(8-cyanoquinolin-5-yl)-N-(4-(4-((4-(2-(2,6-dioxopiperidin-3-yl)-1,3-dioxoisoindolin-5-yl)piperazin-1-yl)methyl)piperidin-1-yl)-2,5-difluorophenyl)-2,5-dimethylpiperazine-1-carboxamide]"
6,> 0.1,"C[C@@H]1CN(c2ccc(C#N)c3ncccc23)[C@@H](C)CN1C(=O)Nc1cc(F)c(N2CCC(CN3CCN(c4ccc5c(c4)CN([C@H]4CCC(=O)NC4=O)C5=O)CC3)CC2)cc1F [Compound 2-18, (2R,5S)-4-(8-cyanoquinolin-5-yl)-N-(4-(4-((4-(2-((S)-2,6-dioxopiperidin-3-yl)-1-oxoisoindolin-5-yl)piperazin-1-yl)methyl)piperidin-1-yl)-2,5-difluorophenyl)-2,5-dimethylpiperazine-1-carboxamide]"
7,> 0.1,"C[C@@H]1CN(c2ccc(C#N)c3ncccc23)[C@@H](C)CN1C(=O)Nc1ccc(N2CCC(CN3CCN(c4ccc5c(c4)CN([C@H]4CCC(=O)NC4=O)C5=O)CC3)CC2)c(F)c1 [Compound 2-21, (2R,5S)-4-(8-cyanoquinolin-5-yl)-N-(4-(4-((4-(2-((S)-2,6-dioxopiperidin-3-yl)-1-oxoisoindolin-5-yl)piperazin-1-yl)methyl)piperidin-1-yl)-3-fluorophenyl)-2,5-dimethylpiperazine-1-carboxamide]"
8,> 0.1,"C[C@@H]1CN(c2ccc(C#N)c3ncccc23)[C@@H](C)CN1C(=O)Nc1ccc(N2CCC(CN3CCN(c4cc5c(cc4F)C(=O)N(C4CCC(=O)NC4=O)C5=O)CC3)CC2)nc1 (stereo partly drawn) [Compound 2-22, (2R,5S)-4-(8-cyanoquinolin-5-yl)-N-(6-(4-((4-(2-(2,6-dioxopiperidin-3-yl)-6-fluoro-1,3-dioxoisoindolin-5-yl)piperazin-1-yl)methyl)piperidin-1-yl)pyridin-3-yl)-2,5-dimethylpiperazine-1-carboxamide]"
9,> 0.1,"C[C@@H]1CN(c2ccc(C#N)c3ncccc23)[C@@H](C)CN1C(=O)Nc1cnc(N2CCC(CN3CCN(c4cc5c(cc4F)C(=O)N(C4CCC(=O)NC4=O)C5=O)CC3)CC2)nc1 (stereo partly drawn) [Compound 2-23, (2R,5S)-4-(8-cyanoquinolin-5-yl)-N-(2-(4-((4-(2-(2,6-dioxopiperidin-3-yl)-6-fluoro-1,3-dioxoisoindolin-5-yl)piperazin-1-yl)methyl)piperidin-1-yl)pyrimidin-5-yl)-2,5-dimethylpiperazine-1-carboxamide]"
10,> 0.1,"C[C@@H]1CN(c2ccc(C#N)c3ncccc23)[C@@H](C)CN1C(=O)Nc1ccc(N2CCC(CN3CCN(c4cc5c(cc4F)C(=O)N(C4CCC(=O)NC4=O)C5=O)CC3)CC2)c(F)c1 (stereo partly drawn) [Compound 2-24, (2R,5S)-4-(8-cyanoquinolin-5-yl)-N-(4-(4-((4-(2-(2,6-dioxopiperidin-3-yl)-6-fluoro-1,3-dioxoisoindolin-5-yl)piperazin-1-yl)methyl)piperidin-1-yl)-3-fluorophenyl)-2,5-dimethylpiperazine-1-carboxamide]"

row,SMILES,DC50 [µM]
1,"C[C@@H]1CN(c2ccc(C#N)c(Cl)c2)[C@@H](C)CN1C(=O)Nc1ccc(N2CCC(CN3CCN(c4ccc5c(c4)C(=O)N(C4CCC(=O)NC4=O)C5=O)CC3)CC2)nc1 (stereo partly drawn) [Compound 1-14, (2R,5S)-4-(3-chloro-4-cyanophenyl)-N-(6-(4-((4-(2-(2,6-dioxopiperidin-3-yl)-1,3-dioxoisoindolin-5-yl)piperazin-1-yl)methyl)piperidin-1-yl)pyridin-3-yl)-2,5-dimethylpiperazine-1-carboxamide]",≤ 0.01

# Biological target: T2, androgen receptor (AR) (Homo sapiens, UniProt P10275)
# T2 construct: endogenous in cells; host or cells: VCAP
# T2 sequence (P10275 1-920): T1 sequence (P10275 1-920 T878A) with A878T
# Assay: AR degradation in VCAP cells (Western blot)
# Assay type: cell-based
# Details: 24 hours after administration
# Protocol: as §1, §2
row,SMILES,DC50 [µM]
1,"C[C@@H]1CN(c2ccc(C#N)c(Cl)c2)[C@@H](C)CN1C(=O)Nc1ccc(N2CCC(CN3CCN(c4ccc5c(c4)C(=O)N(C4CCC(=O)NC4=O)C5=O)CC3)CC2)nc1 (stereo partly drawn) [Compound 1-14, (2R,5S)-4-(3-chloro-4-cyanophenyl)-N-(6-(4-((4-(2-(2,6-dioxopiperidin-3-yl)-1,3-dioxoisoindolin-5-yl)piperazin-1-yl)methyl)piperidin-1-yl)pyridin-3-yl)-2,5-dimethylpiperazine-1-carboxamide]",≤ 0.01

# — patent US11420956B2, “Ureas having Androgen Receptor degradation activity and uses thereof” (ACCUTAR BIOTECHNOLOGY INC., priority 2019, dated 2022)
